Test results: patent US20240002391A1, “4-ALKOXYPYRROLO[2,1-F][1,2,4]TRIAZINES AND PREPARATION AND USES THEREOF” (BioSplice Therapeutics, Inc., priority 2022, published 2024)

Biological target: recombinant DYRK1A kinase (Homo sapiens (Human), UniProt Q13627)
Assay: DYRK1A kinase assay (Ser/Thr 18 peptide Z-lyte FRET)
Type: biochemical
Conditions: DYRK1A kinase activity, Z-lyte Ser/Thr 18 peptide, 15 μM ATP; method text calls the value IC50; read-out: EC50 (the source's name)
Procedure, shortened: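 Z-lyte FRET read-out: coumarin (Em 455) over fluorescein (Em 520) emission ratio, converted to percent phosphorylation after 1 h development. Reaction: 0.25 μg/mL kinase, 15 μM ATP, 4 μM peptide, 1 h RT with compound, duplicate wells. IC50s fitted by non-linear regression.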

SMILES | IC50
COc1nc(N[C@H]2CC[C@](C)(O)CC2)nn2ccc(-c3ccc4nc(C)n(CCO)c4c3)c12 [Compound 172, trans-4-((5-(1-(2-Hydroxyethyl)-2-methyl-1H-benzo[d]imidazol-6-yl)-4-methoxypyrrolo[2,1-f][1,2,4]triazin-2-yl)amino)-1-methylcyclohexan-1-ol] | 2.5 nM
COc1nc(NC2CCC3(CC2)CN(C(C)=O)C3)nn2ccc(-c3ccc4nc(C)n(CCO)c4c3)c12 [Compound 173, 1-(7-((5-(1-(2-hydroxyethyl)-2-methyl-1H-benzo[d]imidazol-6-yl)-4-methoxypyrrolo[2,1-f][1,2,4]triazin-2-yl)amino)-2-azaspiro[3.5]nonan-2-yl)ethan-1-one] | 1.7 nM
COc1nc(NC2CCC3(CC2)COC3)nn2ccc(-c3ccc4nc(C)n(CCO)c4c3)c12 [Compound 174, 2-(6-(2-((2-Oxaspiro[3.5]nonan-7-yl)amino)-4-methoxypyrrolo[2,1-f][1,2,4]triazin-5-yl)-2-methyl-1H-benzo[d]imidazol-1-yl)ethan-1-ol] | 3 nM
COc1nc(N[C@H]2CC[C@](C)(O)CC2)nn2ccc(-c3ccc4nncn4c3)c12 [Compound 187, trans-4-((5-([1,2,4]Triazolo[4,3-a]pyridin-6-yl)-4-methoxypyrrolo[2,1-f][1,2,4]triazin-2-yl)amino)-1-methylcyclohexan-1-ol] | 100 nM
COc1nc(NC2CCC3(CC2)COC3)nn2ccc(-c3ccc4nncn4c3)c12 [Compound 188, 5-([1,2,4]Triazolo[4,3-a]pyridin-6-yl)-4-methoxy-N-(2-oxaspiro[3.5]nonan-7-yl)pyrrolo[2,1-f][1,2,4]triazin-2-amine] | 50.3 nM
COc1nc(N[C@H]2C[C@](C)(N)C2)nn2ccc(-c3ccc4ncnn4c3)c12 [Compound 190, trans-N^1-(5-([1,2,4]Triazolo[1,5-a]pyridin-6-yl)-4-methoxypyrrolo[2,1-f][1,2,4]triazin-2-yl)-3-methylcyclobutane-1,3-diamine] | 11.5 nM
COc1nc(N[C@H]2C[C@@](C)(NC(C)=O)C2)nn2ccc(-c3ccc4ncnn4c3)c12 [Compound 191, N-(cis-3-((5-([1,2,4]Triazolo[1,5-a]pyridin-6-yl)-4-methoxypyrrolo[2,1-f][1,2,4]triazin-2-yl)amino)-1-methylcyclobutyl)acetamide] | 5.3 nM
COc1nc(NC2CCC(F)(F)CC2)nn2ccc(-c3ccc4ncnn4c3)c12 [Compound 193, 5-([1,2,4]Triazolo[1,5-a]pyridin-6-yl)-N-(4,4-difluorocyclohexyl)-4-methoxypyrrolo[2,1-f][1,2,4]triazin-2-amine] | 19.9 nM
COc1nc(NC2CCC3(CC2)CNC3)nn2ccc(-c3ccc4ncnn4c3)c12 [Compound 195, 5-([1,2,4]Triazolo[1,5-a]pyridin-6-yl)-4-methoxy-N-(2-azaspiro[3.5]nonan-7-yl)pyrrolo[2,1-f][1,2,4]triazin-2-amine] | 3.9 nM
COc1nc(NC2CCC3(CC2)CN(C(C)=O)C3)nn2ccc(-c3ccc4ncnn4c3)c12 [Compound 196, 1-(7-((5-([1,2,4]Triazolo[1,5-a]pyridin-6-yl)-4-methoxypyrrolo[2,1-f][1,2,4]triazin-2-yl)amino)-2-azaspiro[3.5]nonan-2-yl)ethan-1-one] | 1.1 nM
COc1nc(NC2CCC3(CC2)CN(C(=O)OC(C)(C)C)C3)nn2ccc(-c3ccc4ncnn4c3)c12 [Compound 197, tert-Butyl 7-((5-([1,2,4]triazolo[1,5-a]pyridin-6-yl)-4-methoxypyrrolo[2,1-f][1,2,4]triazin-2-yl)amino)-2-azaspiro[3.5]nonane-2-carboxylate] | 29.6 nM
COc1nc(NC2CCC3(CC2)COC3)nn2ccc(-c3ccc4ncnn4c3)c12 [Compound 198, 5-([1,2,4]Triazolo[1,5-a]pyridin-6-yl)-4-methoxy-N-(2-oxaspiro[3.5]nonan-7-yl)pyrrolo[2,1-f][1,2,4]triazin-2-amine] | 4.5 nM
COc1nc(N[C@H]2C[C@@](C)(O)C2)nn2ccc(-c3ccc4nnn(C)c4c3)c12 [Compound 199, cis-3-((4-Methoxy-5-(1-methyl-1H-benzo[d][1,2,3]triazol-6-yl)pyrrolo[2,1-f][1,2,4]triazin-2-yl)amino)-1-methylcyclobutan-1-ol] | 5.7 nM
COc1nc(N[C@H]2C[C@@H](OCCO)C2)nn2ccc(-c3ccc4nnn(C)c4c3)c12 [Compound 201, 2-(cis-3-((4-Methoxy-5-(1-methyl-1H-benzo[d][1,2,3]triazol-6-yl)pyrrolo[2,1-f][1,2,4]triazin-2-yl)amino)cyclobutoxy)ethan-1-ol] | 2 nM
COc1nc(N[C@H]2C[C@@](C)(N)C2)nn2ccc(-c3ccc4nnn(C)c4c3)c12 [Compound 202, cis-N^1-(4-Methoxy-5-(1-methyl-1H-benzo[d][1,2,3]triazol-6-yl)pyrrolo[2,1-f][1,2,4]triazin-2-yl)-3-methylcyclobutane-1,3-diamine] | 10.9 nM
COc1nc(N[C@H]2C[C@](C)(N)C2)nn2ccc(-c3ccc4nnn(C)c4c3)c12 [Compound 203, trans-N^1-(4-methoxy-5-(1-methyl-1H-benzo[d][1,2,3]triazol-6-yl)pyrrolo[2,1-f][1,2,4]triazin-2-yl)-3-methylcyclobutane-1,3-diamine] | 7.5 nM
COc1nc(N[C@H]2C[C@@](C)(N(C)C)C2)nn2ccc(-c3ccc4nnn(C)c4c3)c12 [Compound 204, cis-N^3-(4-methoxy-5-(1-methyl-1H-benzo[d][1,2,3]triazol-6-yl)pyrrolo[2,1-f][1,2,4]triazin-2-yl)-N^1,N^1,1-trimethylcyclobutane-1,3-diamine] | 3.5 nM
COc1nc(N[C@H]2C[C@@](C)(NC(C)=O)C2)nn2ccc(-c3ccc4nnn(C)c4c3)c12 [Compound 205, N-(cis-3-((4-Methoxy-5-(1-methyl-1H-benzo[d][1,2,3]triazol-6-yl)pyrrolo[2,1-f][1,2,4]triazin-2-yl)amino)-1-methylcyclobutyl)acetamide] | 4.3 nM
COc1nc(N[C@H]2C[C@](C)(NC(C)=O)C2)nn2ccc(-c3ccc4nnn(C)c4c3)c12 [Compound 206, N-(trans-3-((4-Methoxy-5-(1-methyl-1H-benzo[d][1,2,3]triazol-6-yl)pyrrolo[2,1-f][1,2,4]triazin-2-yl)amino)-1-methylcyclobutyl)acetamide] | 0.4 nM
CCC(=O)N[C@]1(C)C[C@@H](Nc2nc(OC)c3c(-c4ccc5nnn(C)c5c4)ccn3n2)C1 [Compound 207, N-(trans-3-((4-Methoxy-5-(1-methyl-1H-benzo[d][1,2,3]triazol-6-yl)pyrrolo[2,1-f][1,2,4]triazin-2-yl)amino)-1-methylcyclobutyl)propionamide] | 1.3 nM
COCC(=O)N[C@]1(C)C[C@@H](Nc2nc(OC)c3c(-c4ccc5nnn(C)c5c4)ccn3n2)C1 [Compound 208, 2-Methoxy-N-(trans-3-((4-methoxy-5-(1-methyl-1H-benzo[d][1,2,3]triazol-6-yl)pyrrolo[2,1-f][1,2,4]triazin-2-yl)amino)-1-methylcyclobutyl)acetamide] | 0.5 nM
CNC(=O)[C@]1(C)C[C@H](Nc2nc(OC)c3c(-c4ccc5nnn(C)c5c4)ccn3n2)C1 [Compound 209, cis-3-((4-Methoxy-5-(1-methyl-1H-benzo[d][1,2,3]triazol-6-yl)pyrrolo[2,1-f][1,2,4]triazin-2-yl)amino)-N,1-dimethylcyclobutane-1-carboxamide] | 8.8 nM
COc1nc(N[C@H]2C[C@@](C)(C(=O)N(C)C)C2)nn2ccc(-c3ccc4nnn(C)c4c3)c12 [Compound 211, cis-3-((4-Methoxy-5-(1-methyl-1H-benzo[d][1,2,3]triazol-6-yl)pyrrolo[2,1-f][1,2,4]triazin-2-yl)amino)-N,N,1-trimethylcyclobutane-1-carboxamide] | 6.6 nM
COc1nc(N[C@H]2C[C@](C)(C(=O)N(C)C)C2)nn2ccc(-c3ccc4nnn(C)c4c3)c12 [Compound 212, trans-3-((4-Methoxy-5-(1-methyl-1H-benzo[d][1,2,3]triazol-6-yl)pyrrolo[2,1-f][1,2,4]triazin-2-yl)amino)-N,N,1-trimethylcyclobutane-1-carboxamide] | 1.4 nM
COCCNC(=O)[C@]1(C)C[C@@H](Nc2nc(OC)c3c(-c4ccc5nnn(C)c5c4)ccn3n2)C1 [Compound 214, trans-3-((4-Methoxy-5-(1-methyl-1H-benzo[d][1,2,3]triazol-6-yl)pyrrolo[2,1-f][1,2,4]triazin-2-yl)amino)-N-(2-methoxyethyl)-1-methylcyclobutane-1-carboxamide] | 2.2 nM
COc1nc(N[C@H]2C[C@@](C)(C(=O)NC3CC3)C2)nn2ccc(-c3ccc4nnn(C)c4c3)c12 [Compound 217, cis-N-Cyclopropyl-3-((4-methoxy-5-(1-methyl-1H-benzo[d][1,2,3]triazol-6-yl)pyrrolo[2,1-f][1,2,4]triazin-2-yl)amino)-1-methylcyclobutane-1-carboxamide] | 9.3 nM
COc1nc(N[C@H]2C[C@](C)(C(=O)NC3CC3)C2)nn2ccc(-c3ccc4nnn(C)c4c3)c12 [Compound 218, trans-N-Cyclopropyl-3-((4-methoxy-5-(1-methyl-1H-benzo[d][1,2,3]triazol-6-yl)pyrrolo[2,1-f][1,2,4]triazin-2-yl)amino)-1-methylcyclobutane-1-carboxamide] | 2.9 nM
COc1nc(N[C@H]2C[C@](C)(C(=O)N3CCCC3)C2)nn2ccc(-c3ccc4nnn(C)c4c3)c12 [Compound 222, (trans-3-((4-methoxy-5-(1-methyl-1H-benzo[d][1,2,3]triazol-6-yl)pyrrolo[2,1-f][1,2,4]triazin-2-yl)amino)-1-methylcyclobutyl)(pyrrolidin-1-yl)methanone] | 3.5 nM
COc1nc(N[C@H]2C[C@](C)(N3CCCC3=O)C2)nn2ccc(-c3ccc4nnn(C)c4c3)c12 [Compound 223, 1-(trans-3-((4-methoxy-5-(1-methyl-1H-benzo[d][1,2,3]triazol-6-yl)pyrrolo[2,1-f][1,2,4]triazin-2-yl)amino)-1-methylcyclobutyl)pyrrolidin-2-one] | 1.6 nM
